Results published in EPA's ToxValDB 9.5.
Where “and” joins values, the source holds several entries; their conditions need not be identical. Identical values can stand only once.

Experiments:
Oryctolagus sp. = settings: for LD50: acute
Rattus norvegicus [1] = settings: for LD50 / LC50: acute
Rattus norvegicus [2] = settings: subchronic; duration: 13 weeks; oral; gavage; M/F; Fischer 344; Deaths + Histopathology: Liver-Vacuolar change Liver/bile duct- Hyperplasia Liver/centrilobular - necrosis Kidney-Toxic nephropathy Salivary…
Rattus norvegicus [3] = settings: subchronic; oral; gavage; M/F; hepatic lesions
Mus musculus = settings: short-term; duration: 14 days; oral; gavage; M; CD1; hepatic
Rattus norvegicus [4] = settings: chronic; duration: 2 years; oral; gavage; M/F; Fischer 344; hepatic
[5] = developmental, duration: 14 days, oral, gavage, Wistar
[6] = short-term, duration: 12 days, inhalation, F, Crl:CD1
[7] = short-term, duration: 28 days, oral, gavage, Wistar
[8] = reproduction developmental, duration: 13 days, oral, gavage, F, New Zealand
[9] = reproduction developmental, oral, diet, Sprague-Dawley, generation: F1

SMILES: O=C(OCC1CC=CCC1)C1CC=CCC1 (stereo not drawn)
- LD50 (Oryctolagus sp.; dermal, occlusive, New Zealand): 5010 mg/kg and ≥ 12300 mg/kg and ≤ 13400 mg/kg
- LD50 (Rattus norvegicus [1]; oral, gavage): 2840 mg/kg
- LD50 (Rattus norvegicus [1]; oral, gavage, Sprague-Dawley): ≥ 1360 mg/kg and ≤ 2390 mg/kg

SMILES: C1OCOCO1 [1,3,5-Trioxane]
- LD50 (Oryctolagus sp.; dermal): > 3980 mg/kg
- LC50 (Rattus norvegicus [1]; inhalation): > 39200 mg/m3
- LD50 (Rattus norvegicus [1]; oral, gavage): 8190 mg/kg
- LOAEL (Rattus norvegicus [1]; [5]): 315 mg/kg-day
- NOAEL (Rattus norvegicus [1]; [5]): 100 mg/kg-day
- LOAEL (Rattus norvegicus [1]; reproduction developmental, duration: 14 days, oral, gavage, F, Wistar): 100 mg/kg-day
- LOAEL (Rattus norvegicus [1]; [6]): 3630 mg/m3
- NOAEL (Rattus norvegicus [1]; [6]): 379 mg/m3
- LOAEL (Rattus norvegicus [1]; [7]): 1000 mg/kg-day
- NOAEL (Rattus norvegicus [1]; [7]): 200 mg/kg-day

SMILES: Clc1ccccn1 [2-Chloropyridine]
- LD50 (Oryctolagus sp.; dermal): < 200 mg/kg
- LD50 (Rattus norvegicus [1]; oral, gavage): 342 mg/kg

SMILES: C=CC(C)C#N (stereo not drawn) [2-Methyl-3-butenenitrile]
- LD50 (Oryctolagus sp.; dermal, occlusive, New Zealand): 482 mg/kg
- LC50 (Rattus norvegicus [1]; inhalation, Sprague-Dawley): 9950 mg/m3

SMILES: CC(CO)CO [2-Methylpropane-1,3-diol]
- LD50 (Oryctolagus sp.; dermal, New Zealand): > 2000 mg/kg
- NOAEL (Oryctolagus sp.; reproduction developmental, duration: 28 days, oral, gavage, F, New Zealand): 1000 mg/kg-day
- NOAEL (Oryctolagus sp.; reproduction developmental, duration: 28 days, oral, gavage, New Zealand, generation: F1): 1000 mg/kg-day
- LC50 (Rattus norvegicus [1]; Inhalation, Wistar): > 5100 mg/m3
- LD50 (Rattus norvegicus [1]; oral, gavage, Wistar): > 5000 mg/kg
- NOAEL (Rattus norvegicus [1]; developmental, duration: 20 days, oral, gavage, Wistar): 1000 mg/kg-day
- NOAEL (Rattus norvegicus [1]; reproduction developmental, duration: 20 days, oral, gavage, F, Wistar): 1000 mg/kg-day
- NOAEL (Rattus norvegicus [1]; reproduction developmental, duration: 20 days, oral, gavage, Wistar, generation: F1): 1000 mg/kg-day
- NOAEL (Rattus norvegicus [1]; reproduction developmental, duration: 90 days, oral, gavage, Wistar, generation: F0): 1000 mg/kg-day
- NOAEL (Rattus norvegicus [1]; short-term, duration: 14 days, oral, gavage, Wistar): 1000 mg/kg-day
- NOAEL (Rattus norvegicus [1]; subchronic, duration: 90 days, oral, gavage, Wistar): 1000 mg/kg-day

SMILES: CCCCNC(=O)OCC#CI [3-Iodo-2-propynyl-N-butylcarbamate]
- NOAEL (Oryctolagus sp.; [8]): 20 mg/kg-day
- NOAEL (Oryctolagus sp.; reproduction developmental, duration: 13 days, oral, gavage, New Zealand, generation: F1): 50 mg/kg-day
- NOAEL (Oryctolagus sp.; subchronic, duration: 90 days, oral, diet, New Zealand): 16.5 mg/kg-day
- LD50 (Rattus norvegicus [1]; oral, gavage, Sprague-Dawley): 1800 mg/kg and 1470 mg/kg and 1060 mg/kg

SMILES: CCCCN(CCCC)C(=S)SCSC(=S)N(CCCC)CCCC [4,4'-Methylene bis(dibutyldithiocarbamate)]
- LD50 (Oryctolagus sp.; dermal): > 2000 mg/kg
- LD50 (Rattus norvegicus [1]; oral): 16000 mg/kg
- NOAEL (Rattus norvegicus [1]; reproduction developmental, oral, diet, Sprague-Dawley, generation: F0): 1000 ppm
- LOAEL (Rattus norvegicus [1]; [9]): > 20000 ppm
- NOAEL (Rattus norvegicus [1]; [9]): > 20000 ppm

SMILES: CCCCCCCC/C=C/CCCCCCCCN.F [9-Octadecen-1-amine, hydrofluoride]
- LOAEL (Oryctolagus sp.; [8]): 1.2 mg/kg-day
- NOAEL (Rattus norvegicus [1]; reproduction developmental, oral, gavage, Long-Evans, generation: F0): 6 mg/kg-day
- NOAEL (Rattus norvegicus [1]; reproduction developmental, oral, gavage, Long-Evans, generation: F1): 30 mg/kg-day

SMILES: ClC(Br)Br [Chlorodibromomethane]
- NOEL (Rattus norvegicus [2]): 30 mg/kg-day
- LOAEL (Rattus norvegicus [3]): 60 mg/kg-day
- NOEL (Rattus norvegicus [3]): 21.4 mg/kg-day and 30 mg/kg-day
- LOAEL (Mus musculus): 37 mg/kg-day
- LOAEL (Rattus norvegicus [4]): 40 mg/kg-day

SMILES: O=c1[nH]c(=O)[nH]c(=O)[nH]1 [Cyanuric acid]
- LD50 (Oryctolagus sp.; dermal, occlusive, New Zealand): > 5000 mg/kg
- LD50 (Rattus norvegicus [1]; oral, gavage, Sprague-Dawley): > 5000 mg/kg

SMILES: ClC1=C(Cl)C2(Cl)C3CCC4C(CCC3C1(Cl)C2(Cl)Cl)C1(Cl)C(Cl)=C(Cl)C4(Cl)C1(Cl)Cl (stereo not drawn) [Dechlorane Plus]
- LD50 (Oryctolagus sp.; dermal): > 8000 mg/kg
- LOAEC (Oryctolagus sp.; reproduction developmental, duration: 4 weeks, dermal, non-occlusive, New Zealand, generation: F0): 2000 mg/kg-day
- LC50 (Rattus norvegicus [1]; inhalation, particle): > 300 µg/mL
- LC50 (Rattus norvegicus [1]; inhalation, particle, Charles-River): > 2.25 µg/mL
- LD50 (Rattus norvegicus [1]; oral, gavage, Sprague-Dawley): > 3160 mg/kg
- LD50 (Rattus norvegicus [1]; oral, gavage, Wistar): > 25000 mg/kg
- NOAEL (Rattus norvegicus [1]; reproduction developmental, duration: 13 weeks, oral, diet, Crl, generation: F0): 100000 ppm
- LOAEL (Rattus norvegicus [1]; reproduction developmental, duration: 28 days, inhalation, particle, Charles River COB, generation: F0): 0.64 mg/L

SMILES: CC(C)CCCCCCc1cccc2c(CCCCCCC(C)C)cccc12 [Diisononylnaphthalene]
- LD50 (Oryctolagus sp.; dermal, New Zealand): > 20000 mg/kg
- LC50 (Rattus norvegicus [1]; Inhalation, Wistar): > 17 µg/mL
- LD50 (Rattus norvegicus [1]; oral, gavage, Wistar): > 5000 mg/kg

SMILES: CCCCCCCCCCc1cccc(Oc2ccccc2S(=O)(=O)[O-])c1S(=O)(=O)[O-].[Na+].[Na+] [Disodium n-decyldiphenyl ether disulfonate]
- LD50 (Oryctolagus sp.; dermal, occlusive, New Zealand): > 2000 mg/kg
- LD50 (Rattus norvegicus [1]; oral, gavage, Fischer 344): > 2000 mg/kg
- LD50 (Rattus norvegicus [1]; oral, gavage, Sprague-Dawley): 3560 mg/kg

SMILES: CCCCCCCCCCCCCCCCCCOP1OCC2(CO1)COP(OCCCCCCCCCCCCCCCCCC)OC2 (stereo not drawn) [Distearyl pentaerythritol diphosphite]
- LD50 (Oryctolagus sp.; dermal, New Zealand): > 2000 mg/kg
- LD50 (Rattus norvegicus [1]; oral, gavage, Sherman Wistar): > 10000 mg/kg
- NOAEL (Rattus norvegicus [1]; subchronic, duration: 90 days, oral, diet, Sprague-Dawley): > 288 mg/kg-day

SMILES: CCCCCCCCCCCCCCCCCCN(C)CCCCCCCCCCCCCCCCCC [Distearylmethylamine]
- LD50 (Oryctolagus sp.; dermal, occlusive, New Zealand): > 2000 mg/kg
- LD50 (Rattus norvegicus [1]; oral, gavage, Sprague-Dawley): > 5000 mg/kg
- LD50 (Rattus norvegicus [1]; oral, gavage, Wistar): > 2000 mg/kg
- LOAEL (% diet) (Rattus norvegicus [1]; subchronic, duration: 13 weeks, oral, diet, Sprague-Dawley): 0.15
